Publication PMC5141252, “In silico Screening and Evaluation of the Anticonvulsant Activity of Docosahexaenoic Acid-Like Molecules in Experimental Models of Seizures” (Iranian Biomedical Journal, 2017)
Marks after values point to notes of the source that are not given here.

Tests used:
[1] = test system: clonic seizures induced by pentylenetetrazole; experiment: Pentylenetetrazole seizure test; assay type: in vivo; conditions: mice; for Protection (%): 15 min before PTZ 60 mg/kg i.p.; for ED50 (mM) and 95% CI: PTZ clonic seizures, log-Probit analysis
Procedure: (§1) All compounds were prepared freshly before administration. The compounds were dissolved in DMSO and then were diluted in artificial cerebrospinal fluid consisting (in mM) 124.0 NaCl, 25 NaHCO3, 10 D-glucose,4.4 KCl, 2 MgSO4, 1.25 KH2PO4, and 2 CaCl2. The final concentration of DMSO was maintained at 10%. The pH of the solutions was adjusted at the range of 7.2-7.4. Doses of the compounds were selected based on the preliminary experiments conducted in our laboratory.
(§2) DHA-like molecules were administered by intracerebroventricular (i.c.v.) route according to the method described earlier. Briefly, a 3.5-mm-long needle (27 Gauge) was connected to a 10-μL Hamilton microsyringe. The site of injection was 2 mm lateral to the midline on a line drawn through the anterior base of the ears and 3.5 mm in depth from the surface of skull skin. The solution was injected at a rate of 10 µL/10 s and the needle left in place for 60 s after injection.
Fifteen minutes after i.c.v. injection of the compounds, PTZ (60 mg/kg) was injected to the mice intraperitoneally (i.p.). This time period was selected based on the time course of DHA anticonvulsant activity in mice[6]. The occurrence of colonic seizures was monitored in animals for 30 min.
(§3) Statistical analysis was performed by SPSS for Windows software version 16.0. Data obtained from the seizure tests were expressed as percentage of the protected mice. Fisher’s exact test was used to analyze the data. The dose of the drugs that produced anticonvulsant effect in 50% of the animals (ED50), and its associated 95% confidence interval, was calculated by log-Probit analysis.

[2] = test system: tonic seizures induced by MES; experiment: Maximal electroshock seizure test; assay type: in vivo; conditions: mice; for Protection (%): 15 min before MES (50 Hz, 50 mA); for ED50 (mM) and 95% CI: i.c.v., MES tonic seizures, log-Probit analysis
Procedure: as §1, §2
Fifteen minutes after i.c.v. injection of the compounds, an electrical stimulus (50 Hz, 50 mA, 1 s duration) was delivered to the mice through ear-clip electrodes[6] using a stimulator apparatus (MGH-777, Development of Electronic Industry, Iran).
as §3

[3] = test system: tonic seizures induced by MES; parameters: method as in PMID 26018398; conditions: cited from earlier work
[4] = test system: clonic seizures induced by pentylenetetrazole; parameters: method as in PMID 26018398; conditions: PTZ test, mice, i.c.v administration; cited from earlier work

Structure (SMILES): CCC(C(=O)O)c1ccccc1 (stereo not shown) [2-Phenylbutyric acid]
- Protection (%) ([1]; dose 0.0001 M i.c.v.): 0%
- Protection (%) ([1]; dose 0.001 M i.c.v.): 30%
- Protection (%) ([1]; dose 0.01 M i.c.v.): 40^b %
- Protection (%) ([1]; dose 0.1 M i.c.v.): 56.6^a %
- ED50 (mM) and 95% CI ([1]; i.c.v.): 70.0 (25.0-144.2) mM

Structure (SMILES): COc1ccc(CC(=O)O)cc1OC [3,4-Dimethoxyphenylacetic acid, 3,4-Dimethoxyphenylacetic acid]
- anticonvulsant activity (in words) ([1]; PTZ and MES seizure tests, i.c.v.): inactive

Structure (SMILES): O=C(O)Cc1ccc(-c2ccccc2)cc1 [4-Biphenylacetic acid]
- Protection (%) ([1]; dose 0.0001 M i.c.v.): 15%
- Protection (%) ([1]; dose 0.001 M i.c.v.): 35%
- Protection (%) ([1]; dose 0.0075 M i.c.v.): 50%
- Protection (%) ([1]; dose 0.01 M i.c.v.): 85^a %
- ED50 (mM) and 95% CI ([1]; i.c.v.): 5.0 (3.0-5.0) mM

Structure (SMILES): O=C(O)CCCc1ccccc1 [4-Phenylbutyric acid]
- Protection (%) ([1]; dose 0.0001 M i.c.v.): 25%
- Protection (%) ([1]; dose 0.001 M i.c.v.): 50^b %
- Protection (%) ([1]; dose 0.01 M i.c.v.): 73.3^a %
- ED50 (mM) and 95% CI ([1]; i.c.v.): 4.0 (0.0-7.0) mM

Structure (SMILES): CC(C)(C)C1CCC(C(=O)O)CC1 (stereo not shown) [4-tert-Butylcyclohexanecarboxylic acid]
- Protection (%) ([2]; dose 0.001 M i.c.v.): 37.5%
- Protection (%) ([2]; dose 0.01 M i.c.v.): 46.6^b %
- Protection (%) ([2]; dose 0.1 M i.c.v.): 73.3^a %
- ED50 (mM) and 95% CI ([2]; listed as 4-tert-Butylcyclo-hexanecarboxylic acid): 637 mM
- ED50 (mM) and 95% CI ([2]; listed as 4-tert-Butylcyclohexane carboxylic acid): 29.0 (0.0-66.0) mM

Structure (SMILES): CC/C=C\C/C=C\C/C=C\C/C=C\C/C=C\C/C=C\CCC(=O)O [DHA, Docosahexaenoic acid]
- inhibition of tonic seizures in the MES model [3]: not able to inhibit tonic seizures
- ED50 [4]: 0.00013 mM

Structure (SMILES): O=C(O)Cc1ccccc1 [Phenylacetic acid]
- Protection (%) ([1]; dose 0.0001 M i.c.v.): 0%
- Protection (%) ([1]; dose 0.001 M i.c.v.): 20%
- Protection (%) ([1]; dose 0.01 M i.c.v.): 30%
- Protection (%) ([1]; dose 0.1 M i.c.v.): 57.5^a %
- ED50 (mM) and 95% CI ([1]; i.c.v.): 78 mM
- ED50 (mM) and 95% CI ([1]; i.c.v., listed as Phenylbutyric acid): 78.0 (46.0-156.0) mM

Structure (SMILES): O=C(O)C1=C[C@@H](O)[C@@H](O)[C@H](O)C1 [Shikimic acid]
- Protection (%) ([2]; dose 0.01 M i.c.v.): 0%
- Protection (%) ([2]; dose 0.1 M i.c.v.): 20.0%
- Protection (%) ([2]; dose 0.5 M i.c.v.): 43.3^b %
- Protection (%) ([2]; dose 1 M i.c.v.): 70.0^a %
- ED50 (mM) and 95% CI [2]: 637.0 (418.0-890.0) mM
- ED50 (mM) and 95% CI ([2]; listed as shikimic acid): 29 mM
